Laboratory results: patent US10253086B2, “CD20 therapies, CD22 therapies, and combination therapies with a CD19 chimeric antigen receptor (CAR)-expressing cell” (Novartis AG, priority 2015, dated 2019)

Legend:
r/r B-ALL = details: cited from earlier work
NALM6-luc tumors = test: RAD001 alone on growth of NALM6-luc tumors; assay type: in vivo, NSG mice; details: daily oral dosing of RAD001 alone
Method: NALM6-luc cells: The NALM6 human acute lymphoblastic leukemia (ALL) cell line was developed from the peripheral blood of a patient with relapsed ALL. The cells were then tagged with firefly luciferase. These suspension cells grow in RPMI supplemented with 10% heat inactivated fetal bovine serum.
Mice: 6 week old NSG (NOD.Cg-PrkdcscidIl2rgtm1Wjl/SzJ) mice were received from the Jackson Laboratory (stock number 005557).
Tumor implantation: NALM6-luc cells were grown and expanded in vitro in RPMI supplemented with 10% heat inactivated fetal bovine serum. The cells were then transferred to a 15 ml conical tube and washed twice with cold sterile PBS. NALM6-luc cells were then counted and resuspended at a concentration of 10×10^6 cells per milliliter of PBS. The cells were placed on ice and immediately (within one hour) implanted in the mice. NALM6-luc cells were injected intravenously via the tail vein in a 100 μl volume, for a total of 1×10^6 cells per mouse.
(§1) RAD001 dosing: A concentrated micro-emulsion of 50 mg equal to 1 mg RAD001 was formulated and then resuspended in D5W (dextrose 5% in water) at the time of dosing. Mice were orally dosed daily (via oral gavage) with 200 μl of the desired doses of RAD001.
(§2) The expansion and pharmacokinetics of RAD001 was tested in NSG mice with NALM6-luc tumors.

[1] = system: CAR-expressing, transduced T cells; test: CART co-culture with NALM6 cells in the presence of RAD001; assay type: cell-based; details: low doses of RAD001 (nM); 4 days of co-culture with NALM6
Method: CARTs were co-cultured with NALM6 (Nalm-6) cells in the presence of different concentrations of RAD001 (nM). The number of CAR-positive CD3-positive T cells (black) and total T cells (white) was assessed after 4 days of co-culture.

NALM6 (Nalm-6) = test: 4 day co-culture proliferation of huCART19 with RAD001; assay type: cell-based, human
Method: To evaluate the functionality of CARTs, the T cells are thawed and counted, and viability is assessed by Cellometer. The number of CAR-positive cells in each culture is normalized using non-transduced T cells (UTD). The impact of RAD001 on CARTs was tested in titrations with RAD001, starting at 50 nM. The target cell line used in all co-culture experiments is NALM6 (Nalm-6), a human pre-B cell acute lymphoblastic leukemia (ALL) cell line expressing CD19 and transduced to express luciferase.
For measuring the proliferation of CARTs, T cells are cultured with target cells at a ratio of 1:1. The assay is run for 4 days, when cells are stained for CD3, CD4, CD8 and CAR expression. The number of T cells is assessed by flow cytometry using counting beads as reference.
The proliferative capacity of CART cells was tested in a 4 day co-culture assay.

CAR T cells [2] = test: In vivo proliferation of humanized CD19 CART cells with and without RAD001 dosing; details: RAD001 0.003 mg/kg daily with huCTL019; versus normal level of huCAR19 proliferation
Method: FIGS. 62A and 62B show in vivo proliferation of humanized CD19 CART cells with and without RAD001 dosing. […] Circles denote PBS; squares denote huCTL019; triangles denote huCTL019 with 3 mg/kg RAD001; inverted triangles denote huCTL019 with 0.3 mg/kg RAD001; diamonds denote huCTL019 with 0.03 mg/kg RAD001; and circles denote huCTL019 with 0.003 mg/kg RAD001.

[3] = RAD001 PK analysis in tumor bearing mice; assay type: in vivo, NSG mice
Method: as §1
PK analysis: Mice were dosed daily with RAD001 starting 7 days post tumor implantation. Dosing groups were as follows: 0.3 mg/kg, 1 mg/kg, 3 mg/kg, and 10 mg/kg. Mice were bled on days 0 and 14 following the first and last dose of RAD001, at the following time points for PK analysis: 15 minutes, 30 minutes, 1 hour, 2 hours, 4 hours, 8 hours, 12 hours, and 24 hours.
as §2

CAR T cells [4] = test: huCAR19 CAR T cell expansion in vivo with RAD001; parameters: species or system NSG mice; details: lowest doses of RAD001, daily oral
Method: CAR T cell dosing: Mice were administered 5×10^6 CAR T cells 7 days after tumor implantation. Cells were partially thawed in a 37 degree Celsius water bath and then completely thawed by the addition of 1 ml of cold sterile PBS to the tube containing the cells. The thawed cells were transferred to a 15 ml falcon tube and adjusted to a final volume of 10 mls with PBS. The cells were washed twice at 1000 rpm for 10 minutes each time and then counted on a hemocytometer. T cells were then resuspended at a concentration of 50×10^6 CAR T cells per ml of cold PBS and kept on ice until the mice were dosed. The mice were injected intravenously via the tail vein with 100 μl of the CAR T cells for a dose of 5×10^6 CAR T cells per mouse. Eight mice per group were treated either with 100 μl of PBS alone (PBS), or humanized CD19 CAR T cells.
as §1
Based on these doses, huCAR19 CAR T cells were dosed with and without RAD001 to determine the proliferative ability of these cells. The highest dose used was 3 mg/kg based on the levels of RAD001 in the blood 24 hours after dosing. […] Mice were monitored via FACS for T cell expansion. […]

Compound | share of relapses that are CD19-negative (r/r B-ALL) | growth of NALM6-luc tumors (NALM6-luc tumors) | proliferation of CAR-expressing, transduced T cells [1] | proliferation of huCART19 cells (NALM6 (Nalm-6); 0.0032 and 0.016 nM RAD001) | RAD001 concentration at which huCART19 cells expanded (NALM6 (Nalm-6); lesser extent at higher concentrations) | CAR T cell proliferation in vivo (CAR T cells [2]) | concentration of RAD001 in blood ([3]; 24 hours after the final dose) | concentration at 24 h ([3]; NSG, mouse, whole blood, oral, 24 hours after dosing, 0.3 mg/kg, day 0 and day 14, read-out: RAD001 concentrations in the blood) [nM] | stability in the blood of tumor bearing mice ([3]; mouse, in vivo) | proliferation of the CAR T cells in vivo (CAR T cells [4])
blinatumomab: bi-specific anti-CD19/CD3 antibody combining an anti-CD19 scFv with an anti-CD3 scFv | about 30% | – | – | – | – | – | – | – | – | –
CO[C@H]1C[C@@H]2CC[C@@H](C)[C@@](O)(O2)C(=O)C(=O)N2CCCC[C@H]2C(=O)O[C@H]([C@H](C)C[C@@H]2CC[C@@H](OCCO)[C@H](OC)C2)CC(=O)[C@H](C)/C=C(\C)[C@@H](O)[C@@H](OC)C(=O)[C@H](C)C[C@H](C)/C=C/C=C/C=C/1C [RAD001, everolimus] | – | did not have an impact on the growth of NALM6-luc tumors | enhanced | higher than observed without the addition of RAD001 | less than 0.016 nM | enhancement in CAR T cell proliferation | above 10 nM | > 10 | fairly stable in the blood | enhanced proliferation of the CAR T cells
